Reference: US20220401468A1 (priority 2021, published 2022)

System: VSV-eGFP-SARS-CoV-2
Type: cell-based, VSV-SARS-CoV-2 chimeric virus

Substance: Heparin sodium salt
- half-maximal inhibitory concentration (IC50), infected (GFP+) cells: 0.03 µg/mL
